Experimental data: patent US20210215714A1, “COMPLEMENT ALTERNATIVE PATHWAY-ASSOCIATED NEPHROPATHY BIOMARKERS” (Achillion Pharmaceuticals, Inc., priority 2018, published 2021)
Entries after “also recorded” stand apart in the source; their conditions may differ.

Tested on: Ba
Assay: Phase 2a study: urinary Ba (MicroVue Ba Enzyme Immunoassay)
Type: in vivo, human
Conditions: for Urine Ba / Ba/ALB / Ba/Cr: 200 mg TID; for Ba/ALB GEOMEAN / Ba/ALB MEAN / Ba/Cr GEOMEAN / Ba/Cr MEAN / Urine Ba MEAN / Urine Ba GEOMEAN: patients A-F

`CC(=O)c1nn(CC(=O)N2C[C@H](F)C[C@H]2C(=O)Nc2cccc(Br)n2)c2ccc(-c3cnc(C)nc3)cc12` [Compound 1, (2S,4R)-1-(2-(3-acetyl-5-(2-methylpyrimidin-5-yl)-1H-indazol-1-yl)acetyl)-N-(6-bromopyridin-2-yl)-4-fluoropyrrolidine-2-carboxamide] was tested, and the “Urine Ba” value (Patient D, Day 21 Taper) was 18.6 ng/mL, the Ba/ALB (Patient D, Follow-Up Day 24) was 14.9 ng/mg and the Ba/Cr (Patient D, Follow-Up Day 24) was 4.2 µg/mmol. For the same compound, the “Urine Ba” value (Patient D, Follow-Up Day 24) was 28.7 ng/mL, the Ba/ALB (Patient D, Follow-Up Day 28) was 10.8 ng/mg and the Ba/Cr (Patient D, Follow-Up Day 28) was 6.2 µg/mmol. The “Urine Ba” value (Patient D, Follow-Up Day 28) was 30.0 ng/mL, the Ba/ALB (Patient D, Follow-Up Day 49) was 3.8 ng/mg and the Ba/Cr (Patient D, Follow-Up Day 49) was 2.4 µg/mmol. For the same compound, the “Urine Ba” value (Patient D, Follow-Up Day 49) was 9.4 ng/mL, the Ba/ALB (Patient D, Screen) was 19.2 ng/mg and the Ba/Cr (Patient D, Screen) was 11.1 µg/mmol. The “Urine Ba” value (Patient D, Screen) was 84.4 ng/mL, the Ba/ALB (Patient E, Day 1/0 Hour) was 33.5 ng/mg and the Ba/Cr (Patient E, Day 1/0 Hour) was 14.2 µg/mmol. The “Urine Ba” value (Patient E, Day 1/0 Hour) was 252 ng/mL, the Ba/ALB (Patient E, Day 4) was 14.7 ng/mg and the Ba/Cr (Patient E, Day 4) was 6.2 µg/mmol. For the same compound, the “Urine Ba” value (Patient E, Day 4) was 129 ng/mL, the Ba/ALB (Patient E, Day 7/0 Hour) was 17.3 ng/mg and the Ba/Cr (Patient E, Day 7/0 Hour) was 9.2 µg/mmol. The “Urine Ba” value (Patient E, Day 7/0 Hour) was 142 ng/mL, the Ba/ALB (Patient E, Day 10) was 12.8 ng/mg and the Ba/Cr (Patient E, Day 10) was 8.0 µg/mmol. The “Urine Ba” value (Patient E, Day 10) was 106 ng/mL, the Ba/ALB (Patient E, Day 14) was 6.9 ng/mg and the Ba/Cr (Patient E, Day 14) was 1.8 µg/mmol. For the same compound, the “Urine Ba” value (Patient E, Day 14) was 41 ng/mL, the Ba/ALB (Patient E, Day 15 Taper) was 3.6 ng/mg and the Ba/Cr (Patient E, Day 15 Taper) was 1.2 µg/mmol. The “Urine Ba” value (Patient E, Day 15 Taper) was 11 ng/mL, the Ba/ALB (Patient E, Day 16 Taper) was 7.2 ng/mg and the Ba/Cr (Patient E, Day 16 Taper) was 2.0 µg/mmol. For the same compound, the “Urine Ba” value (Patient E, Day 16 Taper) was 20 ng/mL, the Ba/ALB (Patient E, Day 17 Taper) was 12.7 ng/mg and the Ba/Cr (Patient E, Day 17 Taper) was 6.0 µg/mmol. For the same compound, the “Urine Ba” value (Patient E, Day 17 Taper) was 47 ng/mL, the Ba/ALB (Patient E, Day 21 Taper) was 21.6 ng/mg and the Ba/Cr (Patient E, Day 21 Taper) was 5.5 µg/mmol. For the same compound, the “Urine Ba” value (Patient E, Day 21 Taper) was 42 ng/mL, the Ba/ALB (Patient E, Follow-Up Day 24) was 41.2 ng/mg and the Ba/Cr (Patient E, Follow-Up Day 24) was 12.5 µg/mmol. The “Urine Ba” value (Patient E, Follow-Up Day 24) was 156 ng/mL, the Ba/ALB (Patient E, Follow-Up Day 28) was 46.1 ng/mg and the Ba/Cr (Patient E, Follow-Up Day 28) was 14.1 µg/mmol. For the same compound, the “Urine Ba” value (Patient E, Follow-Up Day 28) was 234 ng/mL, the Ba/ALB (Patient E, Follow-Up Day 49) was 40.0 ng/mg and the Ba/Cr (Patient E, Follow-Up Day 49) was 13.1 µg/mmol. For the same compound, the “Urine Ba” value (Patient E, Follow-Up Day 49) was 207 ng/mL, the Ba/ALB (Patient F, Day 1/0 Hour) was 25.9 ng/mg and the Ba/Cr (Patient F, Day 1/0 Hour) was 7.6 µg/mmol. The “Urine Ba” value (Patient F, Day 1/0 Hour) was 74.9 ng/mL, the Ba/ALB (Patient F, Day 4) was 7.6 ng/mg and the Ba/Cr (Patient F, Day 4) was 1.2 µg/mmol. The “Urine Ba” value (Patient F, Day 4) was 5.7 ng/mL, the Ba/ALB (Patient F, Day 7/0 Hour) was 5.7 ng/mg and the Ba/Cr (Patient F, Day 7/0 Hour) was 0.5 µg/mmol. For the same compound, the “Urine Ba” value (Patient F, Day 7/0 Hour) was 2.1 ng/mL, the “Urine Ba” value (Patient F, Day 10) was 2.1 ng/mL and the Ba/ALB (Patient F, Day 14) was 5.8 ng/mg. For the same compound, the Ba/Cr (Patient F, Day 14) was 1.1 µg/mmol, the “Urine Ba” value (Patient F, Day 14) was 9.8 ng/mL and the Ba/ALB (Patient F, Day 15 Taper) was 0.6 ng/mg. The Ba/Cr (Patient F, Day 15 Taper) was 0.5 µg/mmol, the “Urine Ba” value (Patient F, Day 15 Taper) was 2.8 ng/mL and the Ba/ALB (Patient F, Day 16 Taper) was 2.6 ng/mg. The Ba/Cr (Patient F, Day 16 Taper) was 0.6 µg/mmol, the “Urine Ba” value (Patient F, Day 16 Taper) was 2.2 ng/mL and the Ba/ALB (Patient F, Day 17 Taper) was 1.6 ng/mg. For the same compound, the Ba/Cr (Patient F, Day 17 Taper) was 0.7 µg/mmol, the “Urine Ba” value (Patient F, Day 17 Taper) was 6.9 ng/mL and the Ba/ALB (Patient F, Day 21 Taper) was 1.5 ng/mg. For the same compound, the Ba/Cr (Patient F, Day 21 Taper) was 0.5 µg/mmol, the “Urine Ba” value (Patient F, Day 21 Taper) was 6.6 ng/mL and the Ba/ALB (Patient F, Follow-Up Day 24) was 1.5 ng/mg. For the same compound, the Ba/Cr (Patient F, Follow-Up Day 24) was 0.4 µg/mmol, the “Urine Ba” value (Patient F, Follow-Up Day 24) was 2.2 ng/mL and the Ba/ALB (Patient F, Follow-Up Day 28) was 2.5 ng/mg. The Ba/Cr (Patient F, Follow-Up Day 28) was 0.6 µg/mmol, the “Urine Ba” value (Patient F, Follow-Up Day 28) was 2.8 ng/mL and the Ba/Cr (Patient F, Follow-Up Day 49) was 8.2 µg/mmol. The “Urine Ba” value (Patient F, Follow-Up Day 49) was 44.4 ng/mL, the “Ba/ALB GEOMEAN” value (Day 1/0 Hour) was 22.6 ng/mg and the “Ba/ALB MEAN” value (Day 1/0 Hour) was 53.4 ng/mg. For the same compound, the “Ba/Cr GEOMEAN” value (Day 1/0 Hour) was 5.7 µg/mmol, the “Ba/Cr MEAN” value (Day 1/0 Hour) was 26.7 µg/mmol and the “Urine Ba MEAN” value (Day 1/0 Hour) was 197 ng/mL. For the same compound, the “Ba/ALB GEOMEAN” value (Day 4) was 7.8 ng/mg, the “Ba/ALB MEAN” value (Day 4) was 13.8 ng/mg and the “Ba/Cr GEOMEAN” value (Day 4) was 1.4 µg/mmol. The “Ba/Cr MEAN” value (Day 4) was 3.8 µg/mmol, the “Urine Ba GEOMEAN” value (Day 4) was 9.1 ng/mL and the “Urine Ba MEAN” value (Day 4) was 52 ng/mL. The “Ba/ALB GEOMEAN” value (Day 7/0 Hour) was 8.9 ng/mg, the “Ba/ALB MEAN” value (Day 7/0 Hour) was 13.4 ng/mg and the “Ba/Cr GEOMEAN” value (Day 7/0 Hour) was 1.5 µg/mmol. The “Ba/Cr MEAN” value (Day 7/0 Hour) was 4.0 µg/mmol, the “Urine Ba GEOMEAN” value (Day 7/0 Hour) was 7.9 ng/mL and the “Urine Ba MEAN” value (Day 7/0 Hour) was 51 ng/mL. The “Urine Ba GEOMEAN” value (Day 10) was 5.0 ng/mL, the “Urine Ba MEAN” value (Day 10) was 28 ng/mL and the “Ba/ALB GEOMEAN” value (Day 15 Taper) was 4.9 ng/mg. For the same compound, the “Ba/ALB MEAN” value (Day 15 Taper) was 13.4 ng/mg, the “Ba/Cr GEOMEAN” value (Day 15 Taper) was 1.2 µg/mmol and the “Ba/Cr MEAN” value (Day 15 Taper) was 4.1 µg/mmol. For the same compound, the “Urine Ba GEOMEAN” value (Day 15 Taper) was 6.8 ng/mL, the “Urine Ba MEAN” value (Day 15 Taper) was 41 ng/mL and the “Ba/ALB GEOMEAN” value (Day 17 Taper) was 6.9 ng/mg. The “Ba/ALB MEAN” value (Day 17 Taper) was 15.4 ng/mg, the “Ba/Cr GEOMEAN” value (Day 17 Taper) was 1.6 µg/mmol and the “Ba/Cr MEAN” value (Day 17 Taper) was 4.2 µg/mmol. The “Urine Ba GEOMEAN” value (Day 17 Taper) was 9.5 ng/mL, the “Urine Ba MEAN” value (Day 17 Taper) was 41 ng/mL and the “Ba/ALB MEAN” value (Day 21 Taper) was 24.5 ng/mg. The “Ba/Cr GEOMEAN” value (Day 21 Taper) was 2.6 µg/mmol, the “Ba/Cr MEAN” value (Day 21 Taper) was 6.0 µg/mmol and the “Urine Ba GEOMEAN” value (Day 21 Taper) was 17.2 ng/mL. For the same compound, the “Urine Ba MEAN” value (Day 21 Taper) was 46 ng/mL, the “Ba/ALB MEAN” value (Follow-Up Day 24) was 38.5 ng/mg and the “Ba/Cr GEOMEAN” value (Follow-Up Day 24) was 3.0 µg/mmol. The “Ba/Cr MEAN” value (Follow-Up Day 24) was 11.6 µg/mmol, the “Urine Ba GEOMEAN” value (Follow-Up Day 24) was 18.4 ng/mL and the “Urine Ba MEAN” value (Follow-Up Day 24) was 92 ng/mL. The “Ba/ALB GEOMEAN” value (Follow-Up Day 28) was 17.4 ng/mg, the “Ba/ALB MEAN” value (Follow-Up Day 28) was 34.3 ng/mg and the “Ba/Cr GEOMEAN” value (Follow-Up Day 28) was 3.8 µg/mmol. For the same compound, the “Ba/Cr MEAN” value (Follow-Up Day 28) was 9.3 µg/mmol, the “Urine Ba GEOMEAN” value (Follow-Up Day 28) was 24.5 ng/mL and the “Urine Ba MEAN” value (Follow-Up Day 28) was 90 ng/mL. For the same compound, the “Ba/ALB GEOMEAN” value (Follow-Up Day 49) was 20.7 ng/mg, the “Ba/ALB MEAN” value (Follow-Up Day 49) was 143.0 ng/mg and the “Ba/Cr GEOMEAN” value (Follow-Up Day 49) was 3.9 µg/mmol. The “Ba/Cr MEAN” value (Follow-Up Day 49) was 22.6 µg/mmol, the “Urine Ba GEOMEAN” value (Follow-Up Day 49) was 27.2 ng/mL and the “Urine Ba MEAN” value (Follow-Up Day 49) was 334 ng/mL. For the same compound, the “Urinary Ba levels” value (two-week treatment) was “reduced significantly; also recorded: reduced in all patients” and the “Urinary Ba levels normalized to urinary creatinine or albumin” value (two-week treatment) was “reduced significantly”.
